Source: patent publication US20190282590A1, “MEDICAMENT FOR TREATMENT AND/OR PROPHYLACTIC TREATMENT OF BREAST CANCER” (HAKMED AB, priority 2016, published 2019)

Legend:
[1] = type: in vivo
From the text: Since July 2005 369 cases of MBC were identified from the Swedish Cancer Register and each case was matched to five controls (n=[…]) from the general population of the same age and domicile. Medicines with documented side effects of hormonal imbalance or gynecomastia were collected from the Prescribed Drug Register in operation since July 2005. Drug exposure was followed both for cases and controls until the cancer diagnosis or death of the case. Cases and controls with a diagnosis of prostate cancer were excluded. The data were mainly analyzed with conditional logistic regression and Cox regression.
Cox regression and nested case-control analysis were used in analysis of the ever-use variable of any of the included medicines, after the exclusion phases (described below), as well as after the grouping phase and generated study design-specific hazard ratios (HR) and 95% confidence intervals (CI). P-values less than 0.05 were considered statistically significant. All processing of the data and statistical analysis was made using R programming for statistical computing and ended with the effectuation of conditional logistic regression, Cox regression and nested case-control. Using multiple statistical methods provided additional statistical certainty.
In this second line of statistical analysis, the match sets created by Statistics Sweden were kept, using the ID number of the case to connect the five matched controls to each case. All medical use after the time of diagnosis of the case was excluded, which applied also to the controls, meaning that the matched control's medical usage after the date of diagnosis of the case was censored using the predefined match sets. All subjects were classified as non-users until the date of the first prescription of one of the included medicines. […]
The first prescribed medicine for each individual with recorded medical use was selected, since this was likely to be the medicine each individual had used for the longest period of time. […]

[2] = except in skeletal muscle tissue; cited from earlier work
[3] = cited from earlier work
[4] = prevention mainly limited to less severe prostate cancer; cited from earlier work

COc1cc2nc(N(C)CCCNC(=O)C3CCCO3)nc(N)c2cc1OC (stereo not shown) [Alfuzosin]
Association of medication use with risk of MBC (in words) [1]: significant correlation to increased risk of MBC

C[C@]12CCC(=O)C[C@@H]1CC[C@@H]1[C@@H]2CC[C@]2(C)[C@@H](O)CC[C@@H]12 [DHT, dihydrotestosterone]
Potency relative to testosterone or other androgens [2]: 3-5 times

COc1cc2nc(N3CCN(C(=O)C4CCCO4)CC3)nc(N)c2cc1OC (stereo not shown) [Terazosin]
Association of medication use with risk of MBC (in words) [1]: significant correlation to increased risk of MBC

C[C@]12C=CC(=O)N[C@@H]1CC[C@@H]1[C@@H]2CC[C@]2(C)[C@@H](C(=O)Nc3cc(C(F)(F)F)ccc3C(F)(F)F)CC[C@@H]12 [dutasteride, (5α,17β)-N-{2,5-Bis(trifluoromethyl)phenyl}-3-oxo-4-azaandrost-1-ene-17-carboxamide]
Adverse effects in clinical studies ([3]; 5 mg daily for 6 months, patients, compared with therapeutic dose 0.5 mg): no additional adverse effects
Safety of single daily doses ([3]; up to 40 mg/day (80 times the therapeutic dose) for 7 days, healthy volunteers): without significant safety concerns
Preventive effect on MBC (in words) ([1]; register study, 5-ARI users): preventive effect was strongest
Effect on prostate cancer (in words) [4]: a better prognosis has been shown
